# Reference: PubChem BioAssay AID2060887 (Molecular Pharmacology Branch, DTP, NCI, 2025)
# Where “and” joins values, the source holds several entries; their conditions need not be identical. Identical values can stand only once.
# Test system: 782815-120-R-J1-PDC complex spheroid viability
# Assay: Anticancer human tumor 782815-120-R-J1-PDC patient-derived colon adenocarcinoma cell line growth inhibition [RAS]
# Details: for viability, T/C: stronger effect = lower value
# How it was run: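 Agents were tested in combination matrices in half-log decrements from a top concentration at or near clinical Cmax (10 microM if undetermined). Targets were multi-cell spheroids of tumour lines plus HUVEC and MSC stromal cells.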
# 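Also: spheroids exposed to compounds for 7 days before reading.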
# 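For viability, T/C in this document: 100% = DMSO vehicle control viability.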
smiles,measurement,setting,value
Cc1nc(N2CCC3(CC2)COC(C)C3N)c(CO)nc1Sc1ccnc(N)c1Cl (stereo unspecified) + C#Cc1c(F)ccc2cc(O)cc(-c3ncc4c(N5CC6CCC(C5)N6)nc(OCC56CCCN5CC(F)C6)nc4c3F)c12,IC50,"curve of first compound, second compound 0.0316 µM",> 10 µM
same,IC50,"curve of first compound, second compound 0.1 µM",> 10 µM
same,IC50,"curve of first compound, second compound 0.316 µM",> 10 µM
same,IC50,"curve of first compound, second compound 1 µM",> 10 µM
same,IC50,"curve of first compound, second compound 3.16 µM",> 10 µM
same,IC50,"curve of first compound, second compound 10 µM",> 10 µM
same,"viability, T/C","second compound 0.0316 µM, first compound 0.0316 µM",94.9%
same,"viability, T/C","second compound 0.0316 µM, first compound 0.1 µM",99.1%
same,"viability, T/C","second compound 0.0316 µM, first compound 0.316 µM",97.7%
same,"viability, T/C","second compound 0.0316 µM, first compound 1 µM",90.2%
same,"viability, T/C","second compound 0.0316 µM, first compound 3.16 µM",91.5%
same,"viability, T/C","second compound 0.0316 µM, first compound 10 µM",95.2%
same,"viability, T/C","second compound 0.1 µM, first compound 0.0316 µM",96%
same,"viability, T/C","second compound 0.1 µM, first compound 0.1 µM",109%
same,"viability, T/C","second compound 0.1 µM, first compound 0.316 µM",106%
same,"viability, T/C","second compound 0.1 µM, first compound 1 µM",99.7%
same,"viability, T/C","second compound 0.1 µM, first compound 3.16 µM",105%
same,"viability, T/C","second compound 0.1 µM, first compound 10 µM",98.7%
same,"viability, T/C","second compound 0.316 µM, first compound 0.0316 µM",104%
same,"viability, T/C","second compound 0.316 µM, first compound 0.1 µM",102%
same,"viability, T/C","second compound 0.316 µM, first compound 0.316 µM",91.9%
same,"viability, T/C","second compound 0.316 µM, first compound 1 µM",94.7%
same,"viability, T/C","second compound 0.316 µM, first compound 3.16 µM",92.1%
same,"viability, T/C","second compound 0.316 µM, first compound 10 µM",99.7%
same,"viability, T/C","second compound 1 µM, first compound 0.0316 µM",94.3%
same,"viability, T/C","second compound 1 µM, first compound 0.1 µM",90.1%
same,"viability, T/C","second compound 1 µM, first compound 0.316 µM",104%
same,"viability, T/C","second compound 1 µM, first compound 1 µM",88.8%
same,"viability, T/C","second compound 1 µM, first compound 3.16 µM",102%
same,"viability, T/C","second compound 1 µM, first compound 10 µM",98.1%
same,"viability, T/C","second compound 3.16 µM, first compound 0.0316 µM",99.3%
same,"viability, T/C","second compound 3.16 µM, first compound 0.1 µM",96.8%
same,"viability, T/C","second compound 3.16 µM, first compound 0.316 µM",86%
same,"viability, T/C","second compound 3.16 µM, first compound 1 µM",93.6%
same,"viability, T/C","second compound 3.16 µM, first compound 3.16 µM",97%
same,"viability, T/C","second compound 3.16 µM, first compound 10 µM",92.9%
same,"viability, T/C","second compound 10 µM, first compound 0.0316 µM",101%
same,"viability, T/C","second compound 10 µM, first compound 0.1 µM",96.7%
same,"viability, T/C","second compound 10 µM, first compound 0.316 µM",93.4%
same,"viability, T/C","second compound 10 µM, first compound 1 µM",92.6%
same,"viability, T/C","second compound 10 µM, first compound 3.16 µM",105%
same,"viability, T/C","second compound 10 µM, first compound 10 µM",92.3%
NC1c2ccccc2OC12CCN(c1cnc3c(N4CCCc5ncccc54)n[nH]c3n1)CC2 (stereo unspecified),"viability, T/C",compound 0.0316 µM,99% [middle of 4 runs]
same,"viability, T/C",compound 0.1 µM,96.6% [middle of 4 runs]
same,"viability, T/C",compound 0.316 µM,104% [middle of 4 runs]
same,"viability, T/C",compound 1 µM,95% [middle of 4 runs]
same,"viability, T/C",compound 3.16 µM,102% and 94.6% and 99.8% (2×)
same,"viability, T/C",compound 10 µM,86.9% [middle of 4 runs]
same,IC50,curve of compound,> 10 µM
C=CC(=O)Nc1cc(Nc2nccc(-c3cn(C)c4ccccc34)n2)c(OC)cc1N(C)CCN(C)C + CCn1c(-c2cc(N3CCN(C)CC3)cnc2C(C)OC)c2c3cc(ccc31)-c1csc(n1)CC(NC(=O)C1CC1C)C(=O)N1CCCC(N1)C(=O)OCC(C)(C)C2,IC50,"curve of first compound, second compound 0.000949 µM",> 1 µM
same,IC50,"curve of first compound, second compound 0.003 µM",> 1 µM
same,IC50,"curve of first compound, second compound 0.00949 µM",< 0.00316 µM
same,IC50,"curve of first compound, second compound 0.03 µM",< 0.00316 µM
same,IC50,"curve of first compound, second compound 0.0949 µM",< 0.00316 µM
same,IC50,"curve of first compound, second compound 0.3 µM",< 0.00316 µM
same,"viability, T/C","second compound 0.000949 µM, first compound 0.00316 µM",71.5%
same,"viability, T/C","second compound 0.000949 µM, first compound 0.01 µM",71.2%
same,"viability, T/C","second compound 0.000949 µM, first compound 0.0316 µM",79%
same,"viability, T/C","second compound 0.000949 µM, first compound 0.1 µM",74%
same,"viability, T/C","second compound 0.000949 µM, first compound 0.316 µM",76.4%
same,"viability, T/C","second compound 0.000949 µM, first compound 1 µM",68.6%
same,"viability, T/C","second compound 0.003 µM, first compound 0.00316 µM",59.3%
same,"viability, T/C","second compound 0.003 µM, first compound 0.01 µM",60.3%
same,"viability, T/C","second compound 0.003 µM, first compound 0.0316 µM",55.6%
same,"viability, T/C","second compound 0.003 µM, first compound 0.1 µM",55.7%
same,"viability, T/C","second compound 0.003 µM, first compound 0.316 µM",54.7%
same,"viability, T/C","second compound 0.003 µM, first compound 1 µM",47.9%
same,"viability, T/C","second compound 0.00949 µM, first compound 0.00316 µM",31.2%
same,"viability, T/C","second compound 0.00949 µM, first compound 0.01 µM",35.6%
same,"viability, T/C","second compound 0.00949 µM, first compound 0.0316 µM",34.2%
same,"viability, T/C","second compound 0.00949 µM, first compound 0.1 µM",29.6%
same,"viability, T/C","second compound 0.00949 µM, first compound 0.316 µM",28.3%
same,"viability, T/C","second compound 0.00949 µM, first compound 1 µM",27.8%
same,"viability, T/C","second compound 0.03 µM, first compound 0.00316 µM",17.8%
same,"viability, T/C","second compound 0.03 µM, first compound 0.01 µM",23.9%
same,"viability, T/C","second compound 0.03 µM, first compound 0.0316 µM",18.6%
same,"viability, T/C","second compound 0.03 µM, first compound 0.1 µM",17.5%
same,"viability, T/C","second compound 0.03 µM, first compound 0.316 µM",19.7%
same,"viability, T/C","second compound 0.03 µM, first compound 1 µM",18.2%
same,"viability, T/C","second compound 0.0949 µM, first compound 0.00316 µM",16.1%
same,"viability, T/C","second compound 0.0949 µM, first compound 0.01 µM",16.6%
same,"viability, T/C","second compound 0.0949 µM, first compound 0.0316 µM",14.8%
same,"viability, T/C","second compound 0.0949 µM, first compound 0.1 µM",16.2%
same,"viability, T/C","second compound 0.0949 µM, first compound 0.316 µM",15.1%
same,"viability, T/C","second compound 0.0949 µM, first compound 1 µM",19.5%
same,"viability, T/C","second compound 0.3 µM, first compound 0.00316 µM",17.5%
same,"viability, T/C","second compound 0.3 µM, first compound 0.01 µM",16.6%
same,"viability, T/C","second compound 0.3 µM, first compound 0.0316 µM",16.8%
same,"viability, T/C","second compound 0.3 µM, first compound 0.1 µM",12.5%
same,"viability, T/C","second compound 0.3 µM, first compound 0.316 µM",16.3%
same,"viability, T/C","second compound 0.3 µM, first compound 1 µM",18.8%
